Laboratory results: patent publication US10550111B2, “Pyrimidine urea compound containing isoxazolines and use thereof” (SHENYANG SINOCHEM AGROCHEMICALS R&D CO., LTD, priority 2014, dated 2020)

Legend:
Assay type in all cases: in vivo
[1] = tested on: broad-leaf weeds and grass weeds; assay: General screening of herbicidal activity in greenhouse; conditions: 1000 g a.i./hm^2;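 also: 0 means no visible effect and 100 means all weeds dead or not emerged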
Procedure, shortened: (§1)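 Monocot and dicot weeds grown in greenhouse pots; emulsifiable concentrate track-sprayed at 500 L/hm² pre-emergence (24 h after seeding) or post-emergence (grasses 2–3-leaf, broad-leaves 2–4-leaf). Growth inhibition scored visually, 0 = no action, 100 = all dead or not emerged.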

[2] = tested on: Abutilon theophrasti Medic.; assay: Bioassay of herbicidal activity in greenhouse (further screening)
Procedure, shortened: as §1

[3] = tested on: Echinochloa crus-galli (L.) Beauv.; assay: as above
Procedure, shortened: as §1

[4] = tested on: Setaria glauca (L.) Beauv.; assay: as above
Procedure, shortened: as §1

Zinnia elegans Jacq. = assay: as above
Procedure, shortened: as §1

wheat = assay: Crop safety study in greenhouse; conditions: 7.5-37.5 g a.i./hm^2; pre-emergence and post-emergence application
Source text: (§2) Seeds of soybean, cotton, maize, wheat and rice were sown in nutrition soil in paper pot (9 cm diameter), covered with soil in 1 cm and grown in the greenhouse under good growth conditions (temperature, atmospheric humidity, water supply). The compounds of the present invention as emulsifiable concentrate, were applied in pre-emergence and post-emergence treatment by track sprayer (Engineer Research Ltd., pressure 1.95 kg/cm^2, volume 500 L/hm^2, track speed 1.48 km/h). Pre-emergence treatment was conducted after seeding 24 hours and post-emergence treatment was done when the respective weeds reached predetermined leaf stage (soybean and cotton at 2- to 4-leaf stage and maize, wheat and rice at 3-leaf stage), the state of growth of the respective crops were visually observed to determine the safety in accordance with the following evaluation standard.
(§3) Safety rating scale (%): 0 means no damage to crops; 100 means to kill crops completely.

rice = assay: Crop safety study in greenhouse; conditions: 7.5-37.5 g a.i./hm^2; pre-emergence and post-emergence application
Source text: as §2, §3

maize = assay: Crop safety study in greenhouse; conditions: 7.5-37.5 g a.i./hm^2; pre-emergence and post-emergence application
Source text: as §2, §3

`CC(=O)OCC1(C)CC(c2cc(-n3c(=O)cc(C(F)(F)F)n(C)c3=O)c(F)cc2Cl)=NO1` (stereo not shown) [Compound 43] was tested, and the “pre-emergence and post-emergence herbicidal activity against broad-leaf weeds and grass weeds” value [1] was “good”, the “Growth inhibition rate, Post-emergence treatment, Abutilon theophrasti Medic.” value ([2]; dose 7.5 g a.i./hm^2) was 100% and the “Growth inhibition rate, Post-emergence treatment, Abutilon theophrasti Medic.” value ([2]; dose 15 g a.i./hm^2) was 100%. The “Growth inhibition rate, Post-emergence treatment, Abutilon theophrasti Medic.” value ([2]; dose 37.5 g a.i./hm^2) was 100%, the “Growth inhibition rate, Post-emergence treatment, Abutilon theophrasti Medic.” value ([2]; dose 150 g a.i./hm^2) was 100% and the “Growth inhibition rate, Post-emergence treatment, Abutilon theophrasti Medic.” value ([2]; dose 600 g a.i./hm^2) was 100%. For the same compound, the “Growth inhibition rate, Pre-emergence treatment, Abutilon theophrasti Medic.” value ([2]; dose 7.5 g a.i./hm^2) was 100%, the “Growth inhibition rate, Pre-emergence treatment, Abutilon theophrasti Medic.” value ([2]; dose 15 g a.i./hm^2) was 100% and the “Growth inhibition rate, Pre-emergence treatment, Abutilon theophrasti Medic.” value ([2]; dose 37.5 g a.i./hm^2) was 100%. For the same compound, the “Growth inhibition rate, Pre-emergence treatment, Abutilon theophrasti Medic.” value ([2]; dose 150 g a.i./hm^2) was 100%, the “Growth inhibition rate, Pre-emergence treatment, Abutilon theophrasti Medic.” value ([2]; dose 600 g a.i./hm^2) was 100% and the “Growth inhibition rate, Post-emergence treatment, Echinochloa crus-galli (L.) Beauv.” value ([3]; dose 7.5 g a.i./hm^2) was 10%. For the same compound, the “Growth inhibition rate, Post-emergence treatment, Echinochloa crus-galli (L.) Beauv.” value ([3]; dose 15 g a.i./hm^2) was 20%, the “Growth inhibition rate, Post-emergence treatment, Echinochloa crus-galli (L.) Beauv.” value ([3]; dose 37.5 g a.i./hm^2) was 10% and the “Growth inhibition rate, Post-emergence treatment, Echinochloa crus-galli (L.) Beauv.” value ([3]; dose 150 g a.i./hm^2) was 90%. For the same compound, the “Growth inhibition rate, Post-emergence treatment, Echinochloa crus-galli (L.) Beauv.” value ([3]; dose 600 g a.i./hm^2) was 100%, the “Growth inhibition rate, Pre-emergence treatment, Echinochloa crus-galli (L.) Beauv.” value ([3]; dose 7.5 g a.i./hm^2) was 10% and the “Growth inhibition rate, Pre-emergence treatment, Echinochloa crus-galli (L.) Beauv.” value ([3]; dose 15 g a.i./hm^2) was 60%. For the same compound, the “Growth inhibition rate, Pre-emergence treatment, Echinochloa crus-galli (L.) Beauv.” value ([3]; dose 37.5 g a.i./hm^2) was 90%, the “Growth inhibition rate, Pre-emergence treatment, Echinochloa crus-galli (L.) Beauv.” value ([3]; dose 150 g a.i./hm^2) was 95% and the “Growth inhibition rate, Pre-emergence treatment, Echinochloa crus-galli (L.) Beauv.” value ([3]; dose 600 g a.i./hm^2) was 100%. The “Growth inhibition rate, Post-emergence treatment, Setaria glauca (L.) Beauv.” value ([4]; dose 7.5 g a.i./hm^2) was 70%, the “Growth inhibition rate, Post-emergence treatment, Setaria glauca (L.) Beauv.” value ([4]; dose 15 g a.i./hm^2) was 80% and the “Growth inhibition rate, Post-emergence treatment, Setaria glauca (L.) Beauv.” value ([4]; dose 37.5 g a.i./hm^2) was 25%. The “Growth inhibition rate, Post-emergence treatment, Setaria glauca (L.) Beauv.” value ([4]; dose 150 g a.i./hm^2) was 95%, the “Growth inhibition rate, Post-emergence treatment, Setaria glauca (L.) Beauv.” value ([4]; dose 600 g a.i./hm^2) was 100% and the “Growth inhibition rate, Pre-emergence treatment, Setaria glauca (L.) Beauv.” value ([4]; dose 7.5 g a.i./hm^2) was 20%. For the same compound, the “Growth inhibition rate, Pre-emergence treatment, Setaria glauca (L.) Beauv.” value ([4]; dose 15 g a.i./hm^2) was 35%, the “Growth inhibition rate, Pre-emergence treatment, Setaria glauca (L.) Beauv.” value ([4]; dose 37.5 g a.i./hm^2) was 90% and the “Growth inhibition rate, Pre-emergence treatment, Setaria glauca (L.) Beauv.” value ([4]; dose 150 g a.i./hm^2) was 98%. For the same compound, the “Growth inhibition rate, Pre-emergence treatment, Setaria glauca (L.) Beauv.” value ([4]; dose 600 g a.i./hm^2) was 100%, the “Growth inhibition rate, Post-emergence treatment, Zinnia elegans Jacq.” value (Zinnia elegans Jacq.; dose 7.5 g a.i./hm^2) was 98% and the “Growth inhibition rate, Post-emergence treatment, Zinnia elegans Jacq.” value (Zinnia elegans Jacq.; dose 15 g a.i./hm^2) was 100%. The “Growth inhibition rate, Post-emergence treatment, Zinnia elegans Jacq.” value (Zinnia elegans Jacq.; dose 37.5 g a.i./hm^2) was 100%, the “Growth inhibition rate, Post-emergence treatment, Zinnia elegans Jacq.” value (Zinnia elegans Jacq.; dose 150 g a.i./hm^2) was 100% and the “Growth inhibition rate, Post-emergence treatment, Zinnia elegans Jacq.” value (Zinnia elegans Jacq.; dose 600 g a.i./hm^2) was 100%. For the same compound, the “Growth inhibition rate, Pre-emergence treatment, Zinnia elegans Jacq.” value (Zinnia elegans Jacq.; dose 7.5 g a.i./hm^2) was 0%, the “Growth inhibition rate, Pre-emergence treatment, Zinnia elegans Jacq.” value (Zinnia elegans Jacq.; dose 15 g a.i./hm^2) was 25% and the “Growth inhibition rate, Pre-emergence treatment, Zinnia elegans Jacq.” value (Zinnia elegans Jacq.; dose 37.5 g a.i./hm^2) was 50%. For the same compound, the “Growth inhibition rate, Pre-emergence treatment, Zinnia elegans Jacq.” value (Zinnia elegans Jacq.; dose 150 g a.i./hm^2) was 100%, the “Growth inhibition rate, Pre-emergence treatment, Zinnia elegans Jacq.” value (Zinnia elegans Jacq.; dose 600 g a.i./hm^2) was 100% and the “Crop safety, wheat” value (wheat) was “good safety”. The “Crop safety, rice” value (rice) was “good safety” and the “Crop safety, maize” value (maize) was “good safety”.
With `Cn1c(C(F)(F)F)cc(=O)n(-c2cc(C3=NOC(C)(COC(=O)C4CC4)C3)c(Cl)cc2F)c1=O` (stereo not shown) [Compound 45] the “pre-emergence and post-emergence herbicidal activity against broad-leaf weeds and grass weeds” value [1] was “good”, the “Growth inhibition rate, Post-emergence treatment, Abutilon theophrasti Medic.” value ([2]; dose 7.5 g a.i./hm^2) was 98% and the “Growth inhibition rate, Post-emergence treatment, Abutilon theophrasti Medic.” value ([2]; dose 15 g a.i./hm^2) was 100%. The “Growth inhibition rate, Post-emergence treatment, Abutilon theophrasti Medic.” value ([2]; dose 37.5 g a.i./hm^2) was 100%, the “Growth inhibition rate, Post-emergence treatment, Abutilon theophrasti Medic.” value ([2]; dose 150 g a.i./hm^2) was 100% and the “Growth inhibition rate, Post-emergence treatment, Abutilon theophrasti Medic.” value ([2]; dose 600 g a.i./hm^2) was 100%. The “Growth inhibition rate, Pre-emergence treatment, Abutilon theophrasti Medic.” value ([2]; dose 7.5 g a.i./hm^2) was 98%, the “Growth inhibition rate, Pre-emergence treatment, Abutilon theophrasti Medic.” value ([2]; dose 15 g a.i./hm^2) was 100% and the “Growth inhibition rate, Pre-emergence treatment, Abutilon theophrasti Medic.” value ([2]; dose 37.5 g a.i./hm^2) was 95%. The “Growth inhibition rate, Pre-emergence treatment, Abutilon theophrasti Medic.” value ([2]; dose 150 g a.i./hm^2) was 100%, the “Growth inhibition rate, Pre-emergence treatment, Abutilon theophrasti Medic.” value ([2]; dose 600 g a.i./hm^2) was 100% and the “Growth inhibition rate, Post-emergence treatment, Echinochloa crus-galli (L.) Beauv.” value ([3]; dose 7.5 g a.i./hm^2) was 15%. The “Growth inhibition rate, Post-emergence treatment, Echinochloa crus-galli (L.) Beauv.” value ([3]; dose 15 g a.i./hm^2) was 15%, the “Growth inhibition rate, Post-emergence treatment, Echinochloa crus-galli (L.) Beauv.” value ([3]; dose 37.5 g a.i./hm^2) was 25% and the “Growth inhibition rate, Post-emergence treatment, Echinochloa crus-galli (L.) Beauv.” value ([3]; dose 150 g a.i./hm^2) was 80%. For the same compound, the “Growth inhibition rate, Post-emergence treatment, Echinochloa crus-galli (L.) Beauv.” value ([3]; dose 600 g a.i./hm^2) was 100%, the “Growth inhibition rate, Pre-emergence treatment, Echinochloa crus-galli (L.) Beauv.” value ([3]; dose 7.5 g a.i./hm^2) was 5% and the “Growth inhibition rate, Pre-emergence treatment, Echinochloa crus-galli (L.) Beauv.” value ([3]; dose 15 g a.i./hm^2) was 10%. For the same compound, the “Growth inhibition rate, Pre-emergence treatment, Echinochloa crus-galli (L.) Beauv.” value ([3]; dose 37.5 g a.i./hm^2) was 20%, the “Growth inhibition rate, Pre-emergence treatment, Echinochloa crus-galli (L.) Beauv.” value ([3]; dose 150 g a.i./hm^2) was 85% and the “Growth inhibition rate, Pre-emergence treatment, Echinochloa crus-galli (L.) Beauv.” value ([3]; dose 600 g a.i./hm^2) was 100%. The “Growth inhibition rate, Post-emergence treatment, Setaria glauca (L.) Beauv.” value ([4]; dose 7.5 g a.i./hm^2) was 30%, the “Growth inhibition rate, Post-emergence treatment, Setaria glauca (L.) Beauv.” value ([4]; dose 15 g a.i./hm^2) was 45% and the “Growth inhibition rate, Post-emergence treatment, Setaria glauca (L.) Beauv.” value ([4]; dose 37.5 g a.i./hm^2) was 50%. The “Growth inhibition rate, Post-emergence treatment, Setaria glauca (L.) Beauv.” value ([4]; dose 150 g a.i./hm^2) was 85%, the “Growth inhibition rate, Post-emergence treatment, Setaria glauca (L.) Beauv.” value ([4]; dose 600 g a.i./hm^2) was 98% and the “Growth inhibition rate, Pre-emergence treatment, Setaria glauca (L.) Beauv.” value ([4]; dose 7.5 g a.i./hm^2) was 70%. For the same compound, the “Growth inhibition rate, Pre-emergence treatment, Setaria glauca (L.) Beauv.” value ([4]; dose 15 g a.i./hm^2) was 80%, the “Growth inhibition rate, Pre-emergence treatment, Setaria glauca (L.) Beauv.” value ([4]; dose 37.5 g a.i./hm^2) was 95% and the “Growth inhibition rate, Pre-emergence treatment, Setaria glauca (L.) Beauv.” value ([4]; dose 150 g a.i./hm^2) was 90%. The “Growth inhibition rate, Pre-emergence treatment, Setaria glauca (L.) Beauv.” value ([4]; dose 600 g a.i./hm^2) was 100%, the “Growth inhibition rate, Post-emergence treatment, Zinnia elegans Jacq.” value (Zinnia elegans Jacq.; dose 7.5 g a.i./hm^2) was 95% and the “Growth inhibition rate, Post-emergence treatment, Zinnia elegans Jacq.” value (Zinnia elegans Jacq.; dose 15 g a.i./hm^2) was 100%. The “Growth inhibition rate, Post-emergence treatment, Zinnia elegans Jacq.” value (Zinnia elegans Jacq.; dose 37.5 g a.i./hm^2) was 100%, the “Growth inhibition rate, Post-emergence treatment, Zinnia elegans Jacq.” value (Zinnia elegans Jacq.; dose 150 g a.i./hm^2) was 100% and the “Growth inhibition rate, Post-emergence treatment, Zinnia elegans Jacq.” value (Zinnia elegans Jacq.; dose 600 g a.i./hm^2) was 100%. For the same compound, the “Growth inhibition rate, Pre-emergence treatment, Zinnia elegans Jacq.” value (Zinnia elegans Jacq.; dose 7.5 g a.i./hm^2) was 20%, the “Growth inhibition rate, Pre-emergence treatment, Zinnia elegans Jacq.” value (Zinnia elegans Jacq.; dose 15 g a.i./hm^2) was 20% and the “Growth inhibition rate, Pre-emergence treatment, Zinnia elegans Jacq.” value (Zinnia elegans Jacq.; dose 37.5 g a.i./hm^2) was 90%. The “Growth inhibition rate, Pre-emergence treatment, Zinnia elegans Jacq.” value (Zinnia elegans Jacq.; dose 150 g a.i./hm^2) was 95%, the “Growth inhibition rate, Pre-emergence treatment, Zinnia elegans Jacq.” value (Zinnia elegans Jacq.; dose 600 g a.i./hm^2) was 100% and the “Crop safety, wheat” value (wheat) was “good safety”. The “Crop safety, rice” value (rice) was “good safety” and the “Crop safety, maize” value (maize) was “good safety”.
